Experiments:
[1] = molecular target: human TYK2 (JH2domain-pseudokinase) (Homo sapiens (Human), UniProt P29597); experiment: TYK2 JH2 domain binding assay (KINOMEscan, DiscoveRx); settings: 11-point 3-fold dilution, top concentration 30,000 nM, duplicate; read-out: hTYK2_JH2_Binding (Kd; nM)
Procedure: From these HEK 293 cells, extracts were prepared in M-PER extraction buffer (Pierce) in the presence of Protease Inhibitor Cocktail Complete (Roche) and Phosphatase Inhibitor Cocktail Set II (Merck) per manufacturers' instructions. The TYK2 (JH2domain-pseudokinase) fusion protein was labeled with a chimeric double-stranded DNA tag containing the NFkB binding site (5′-[…]-3′) fused to an amplicon for qPCR readout, which was added directly to the expression extract (the final concentration of DNA-tag in the binding reaction is 0.1 nM).
The liganded beads were blocked with excess biotin and washed with blocking buffer (SeaBlock (Pierce), 1% BSA, 0.05% Tween 20, 1 mM DTT) to remove unbound ligand and to reduce nonspecific binding.
Extracts were loaded with DNA-tag and diluted into the binding reaction in a two step process. First extracts were diluted 1:100 in 1× binding buffer (PBS/0.05% Tween 20/10 mM DTT/0.1% BSA/2 μg/ml sonicated salmon sperm DNA) containing 10 nM DNA-tag. […] Kds were determined using an 11-point 3-fold compound dilution series with three DMSO control points. […]
Kds were determined using an 11-point 3-fold compound dilution series with three DMSO control points. […] The Kds were determined using a compound top concentration of 30,000 nM. […]
Binding constants (Kds) were calculated with a standard dose-response curve using the Hill equation: […]

[2] = tested on: IL-12 induced STAT4 phosphorylation mediated by TYK2/JAK2; experiment: IL-12 induced pSTAT4 in human PBMC; assay type: cell-based; settings: 1 hr compound, 1.7 ng/mL IL-12 for 30 minutes
In short: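 Thawed human PBMC were pre-incubated with compound for 1 hr at 37 °C (0.1% DMSO), then stimulated with 1.7 ng/mL IL-12 for 30 minutes. Phospho-STAT4 and total STAT4 were measured in cell lysates by MSD.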

human TYK2 (JH2domain-pseudokinase), sequence (P29597 556-888): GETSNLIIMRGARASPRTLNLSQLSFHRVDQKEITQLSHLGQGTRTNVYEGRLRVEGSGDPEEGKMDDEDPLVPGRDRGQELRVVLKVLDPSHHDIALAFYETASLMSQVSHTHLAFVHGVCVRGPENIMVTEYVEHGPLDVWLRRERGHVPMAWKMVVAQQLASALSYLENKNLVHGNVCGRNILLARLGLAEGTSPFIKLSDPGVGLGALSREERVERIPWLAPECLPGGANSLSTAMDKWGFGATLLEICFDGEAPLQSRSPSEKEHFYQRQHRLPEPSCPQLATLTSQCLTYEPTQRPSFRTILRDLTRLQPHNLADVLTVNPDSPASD

Kd [1]: < 0.2 nM
IC50 [2]: < 0.1 µM
Compound: CNc1cc(-c2cn([C@H]3CO[C@@H](COC)C3)c3ncccc23)nc2c(C(=O)N[C@H]3CC[C@@H]3OC)cnn12 [I-1018, N-((1S,2S)-2-methoxycyclobutyl)-5-(1-(5-(methoxymethyl)tetrahydrofuran-3-yl)-1H-pyrrolo[2,3-b]pyridin-3-yl)-7-(methylamino)pyrazolo[1,5-a]pyrimidine-3-carboxamide]

Source: patent US12221453B2, “Substituted pyrazolo[5′,1′:2,3]pyrimido[5,4-b][1,4]oxazines as TYK2 inhibitors” (TAKEDA PHARMACEUTICAL COMPANY LIMITED, priority 2018, dated 2025)
